Data taken from PubChem BioAssay AID977628 (Broad Institute, 2014).
Records with an inconclusive call do not appear. Activity calls are given as the source filed them.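 Rule for the calls: active = compound lowering the normal-ribosome reporter at least twice as much as the humanized-ribosome reporter, growth loss under a set limit; inconclusive = no clear call, values can overlap the other calls; inactive = the rest.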

Legend:
[1] = test system: E. coli mixed WT/h24 culture total growth, OD600, 24 h; assay: E. coli growth inhibition, wild-type GFP versus h24 humanized RFP strain, dose response, h24 mutant RFP vs wild-type GFP, cherry-pick (AID 977628)
[2] = test system: E. coli WT GFP strain growth, fluorescence, 24 h; assay: as above

Row | SMILES | AC50 [1] | AC50 [2]
1 | CCc1cc(C(=O)N2CCCC(C(=O)c3cccc4ccccc34)C2)n(C)n1 (centres undefined) | > 100 µM | > 100 µM (inactive)
2 | CCOc1ccc(OCC)c(NC(=O)CSc2nc3c(c(=O)n(C)c(=O)n3C)n2C(C)C)c1 | 45.5 µM | > 100 µM (inactive)
3 | COc1ccc(S(=O)(=O)Cc2ccc(C(=O)N3CCN(c4cc(Cl)ccc4C)CC3)o2)cc1 | 49.9 µM | > 100 µM (inactive)
4 | C=CCn1c(-c2sc(-c3ccccc3)nc2C)n[nH]c1=S | > 100 µM | > 100 µM (inactive)
5 | CN(C)C(=O)c1ccc(NC(=O)CSc2nc3ccccc3[nH]2)cc1 | > 100 µM | > 100 µM (inactive)
6 | O=C(Cn1cc(COc2c(F)c(F)cc(F)c2F)nn1)c1ccc(O)cc1 | > 100 µM | > 100 µM (inactive)
7 | COc1ccc(C(=O)Nc2ccc(Nc3ccccc3)cc2)cc1[N+](=O)[O-] | > 100 µM | > 100 µM (inactive)
8 | CSc1c(-c2ccccn2)c(N)nn1C(=O)C1CC1 | > 100 µM | > 100 µM (inactive)
9 | COc1ccc(C(=O)Cn2nnc(-c3ccccc3F)n2)cc1 | 48.8 µM | > 100 µM (inactive)
10 | CN(CCOc1ccccc1)C(=O)c1ccc(OC2CCN(C(=O)C3CC3)CC2)cc1 | > 100 µM | > 100 µM (inactive)
11 | COCC#Cc1ccc2c(c1)O[C@@H](CN(C)S(=O)(=O)c1cccc(F)c1)[C@@H](C)CN([C@H](C)CO)S2(=O)=O | 50 µM | > 100 µM (inactive)
12 | CN(C)Cc1nc2ccccc2c(=O)n1Cc1nc(-c2cccc([N+](=O)[O-])c2)cs1 | > 100 µM | > 100 µM (inactive)
13 | CCOC(=O)C(CC)Sc1cc(C)nc2ccc(OC)cc12 (centres undefined) | > 100 µM | > 100 µM (inactive)
14 | O=C(CC(=O)c1cccs1)c1ccncc1 | > 100 µM | > 100 µM (inactive)
15 | O=C(Nc1cccc(Cl)c1)N1C[C@@H]2[C@H](c3ccccc31)[C@@H](CO)N2CC1CCCCC1 | 41.9 µM | > 100 µM (inactive)
16 | COc1ccc(NS(=O)(=O)c2cccc3ccccc23)cc1 | 40.6 µM | > 100 µM (inactive)
17 | CC(C)(C)C1CCC(OCC(O)CN2CCN(c3ccccn3)CC2)CC1 (centres undefined) | 41 µM | > 100 µM (inactive)
18 | COc1ccc(OC)c(NC(=O)COC(=O)C2CCN(C(=O)c3ccc(Cl)cc3)CC2)c1 | > 100 µM | > 100 µM (inactive)
19 | COc1ccc(N(C)S(=O)(=O)c2cccc(C(=O)NC3CCCCC3C)c2)cc1 (centres undefined) | 47.7 µM | > 100 µM (inactive)
20 | O=C(NCc1ccc(Cl)cc1)c1csc(-c2cccnc2)n1 | 49.1 µM | > 100 µM (inactive)
21 | COc1ccc(OC)c(C(=O)COC(=O)c2ccc([N+](=O)[O-])o2)c1 | > 100 µM | > 100 µM (inactive)
22 | Brc1cc2c(cc1Br)OCCOCCOCCO2 | > 100 µM | > 100 µM (inactive)
23 | COc1ccc(NC(=O)CN(c2ccccc2OC)S(=O)(=O)c2cccs2)cc1Cl | > 100 µM | > 100 µM (inactive)
24 | Cc1ccc(N(CC(O)Cn2nc(C)cc2C)S(=O)(=O)c2ccc3ccccc3c2)cc1 (centres undefined) | 49.4 µM | > 100 µM (inactive)
25 | CCCN(CC(=O)Nc1ccccc1C)C(=O)c1cccc(S(=O)(=O)N2CCc3ccccc3C2)c1 | 51.9 µM | > 100 µM (inactive)
26 | O=S(=O)(Nc1ccc(-c2cnco2)cc1)c1ccccc1 | > 100 µM | > 100 µM (inactive)

Row | SMILES | AC50 [1] | AC50 [2]
27 | O=C(Cc1coc2cc(O)ccc12)N1CCN(S(=O)(=O)c2ccc(Br)cc2)CC1 | 50.5 µM | > 100 µM (inactive)
28 | Cc1ccccc1CSCC(=O)Nc1ccccc1F | > 100 µM | > 100 µM (inactive)
29 | COc1ccc(-c2nnn(CC(=O)N3CCN(c4ccccc4OC)CC3)n2)cc1OC | > 100 µM | > 100 µM (inactive)
30 | CN1C(=O)c2cccc3c(S(=O)(=O)NCCc4ccccc4)ccc1c23 | > 100 µM | > 100 µM (inactive)
31 | O=C(CCCn1c(=S)[nH]c2ccsc2c1=O)Nc1ccc2c(c1)OCCO2 | 46.7 µM | > 100 µM (inactive)
32 | COc1ccc(-n2ccnc2SCC(=O)NCc2ccccc2)c(OC)c1 | > 100 µM | > 100 µM (inactive)
33 | Cc1cc(C(=O)COC(=O)c2ccc(Br)o2)c(C)n1C | 42.5 µM | > 100 µM (inactive)
34 | Cc1cc(Cl)n2ncc(-c3ccccc3)c2n1 | > 100 µM | > 100 µM (inactive)
35 | COc1ccc(CNC(=O)c2cc3c(s2)CN(Cc2ccccc2)C3)cc1 | > 100 µM | > 100 µM (inactive)
36 | O=C(CSCc1c(Cl)cccc1Cl)Nc1cccnc1 | > 100 µM | > 100 µM (inactive)
37 | O=C(NCC(c1ccc(F)cc1)N1CCOCC1)c1ccc([N+](=O)[O-])o1 (centres undefined) | > 100 µM | > 100 µM (inactive)
38 | NC(=O)c1ccsc1NC(=O)COC(=O)CCOc1ccccc1 | 46.3 µM | > 100 µM (inactive)
39 | CCCCNC(=O)c1onc(CSc2cc(C)cc(C)c2)c1C(=O)O | 28 µM | > 100 µM (inactive)
40 | CCOc1ccc(CCNC(=O)CCc2nc3ccccc3[nH]2)cc1OCC | > 100 µM | > 100 µM (inactive)
41 | CCOc1cccc2sc(N(CCCN(C)C)C(=O)c3ccc(S(=O)(=O)N4CCCCCC4)cc3)nc12 | > 100 µM | > 100 µM (inactive)
42 | O=[N+]([O-])c1ccccc1Oc1ccc(Cl)c2cccnc12 | > 100 µM | > 100 µM (inactive)
43 | Cc1ccc(Oc2ccc(S(=O)(=O)N3CCOCC3)cc2C(N)=O)cc1C | > 100 µM | > 100 µM (inactive)
44 | COc1ccc(OCC(=O)N2c3ccccc3CC2C)c([N+](=O)[O-])c1 (centres undefined) | > 100 µM | > 100 µM (inactive)
45 | COC(=O)c1ccc(CSc2nc(-c3ccccc3)cs2)o1 | 27.1 µM | > 100 µM (inactive)
46 | CC(C)(C)c1ccc2c(c1)C(c1ccc3c(c1)OCO3)CC(=O)O2 (centres undefined) | > 100 µM | > 100 µM (inactive)
47 | Cc1nn(-c2ccccc2)c(C)c1NC(=O)COc1ccc2ccccc2c1 | 42.8 µM | > 100 µM (inactive)
48 | Cc1cc(NC(=O)CSc2nccn2-c2cccc(C)c2C)no1 | > 100 µM | > 100 µM (inactive)
49 | Cc1cc(C(=O)OCC(=O)Nc2cccc(S(N)(=O)=O)c2)c2ccccc2n1 | > 100 µM | > 100 µM (inactive)
50 | CCOC(=O)c1[nH]c2ccccc2c1NC(=O)c1ccc(Br)o1 | 41.7 µM | > 100 µM (inactive)
51 | Cc1ccc(C)c(-c2[nH]ncc2CN2CCCC(CO)(Cc3ccccc3C)C2)c1 (centres undefined) | > 100 µM | > 100 µM (inactive)
52 | Cc1ccc(NC(=O)CCCSc2ccccc2)cc1S(=O)(=O)N1CCOCC1 | > 100 µM | > 100 µM (inactive)

Row | SMILES | AC50 [1] | AC50 [2]
53 | COc1cc2c(cc1NC(=O)C(C)Sc1cccc[n+]1[O-])oc1ccccc12 (centres undefined) | > 100 µM | > 100 µM (inactive)
54 | CN(Cc1ccccc1)C(=O)c1[nH]cnc1C(=O)NCc1ccccc1 | > 100 µM | > 100 µM (inactive)
55 | CCOC(=O)c1ccc(CC(=O)c2oc3cc(O)ccc3c2C)o1 | > 100 µM | > 100 µM (inactive)
56 | CC(C)Cn1c(=O)c2ccccc2c2ccccc2c1=O | > 100 µM | > 100 µM (inactive)
57 | COc1ccc(NC(=O)CCC(=O)c2cccs2)cc1S(=O)(=O)Nc1ccc(Cl)cc1 | > 100 µM | > 100 µM (inactive)
58 | COc1ccc(C2=Nc3ccccc3NC(=O)C2N(C(=O)c2ccnc3ccccc23)c2ccccc2)cc1 (centres undefined) | 43 µM | > 100 µM (inactive)
59 | CC(=O)c1c(C)nn(CC(O)COc2ccc3c(c2)CCC3)c1C (centres undefined) | 50.1 µM | > 100 µM (inactive)
60 | CC(C)(C)c1cc(-c2n[nH]c(=S)n2-c2ccc(Cl)cc2)n[nH]1 | > 100 µM | > 100 µM (inactive)
61 | CN1c2ccc(C#Cc3cccnc3)cc2[C@@H]2[C@@H](CCN2C(=O)c2cccc(F)c2)[C@H]1CO | > 100 µM | > 100 µM (inactive)
62 | Clc1cccc(OCc2nc(-c3ccncc3)n[nH]2)c1 | > 100 µM | > 100 µM (inactive)
63 | COC(=O)c1cc(C(=O)Cc2ccccc2)c[nH]1 | > 100 µM | > 100 µM (inactive)
64 | O=C(Nc1cccc(S(=O)(=O)N2CCCCC2)c1)c1ccc(Cl)nc1 | > 100 µM | > 100 µM (inactive)
65 | CCSc1nc2ccccc2c(=O)n1Cc1ccc(F)cc1 | 45.7 µM | > 100 µM (inactive)
66 | COc1cc(OC)cc(C(=O)Nc2ccc(S(=O)(=O)Nc3cnc4ccccc4n3)cc2)c1 | 42.2 µM | > 100 µM (inactive)
67 | CCC(=O)Nc1nc2c(OC)ccc(OC)c2s1 | > 100 µM | > 100 µM (inactive)
68 | C(=C(c1ccccc1)c1ccccc1)c1ccccn1 | > 100 µM | > 100 µM (inactive)
69 | CC(=O)Nc1ccc(-c2ccnc3c2CC(C)(C(=O)Nc2ccc4c(c2)OCO4)O3)cc1 (centres undefined) | > 100 µM | > 100 µM (inactive)
70 | Cc1cc(NC(=O)CS(=O)(=O)c2cn(Cc3cccc(Br)c3)c3ccccc23)no1 | 40 µM | > 100 µM (inactive)
71 | C=C1SC(Nc2c(C)cc(C)cc2C)=NC12CCCCC2 | 22.8 µM | > 100 µM (inactive)
72 | O=C(NCc1ccc(S(=O)(=O)Nc2ccccc2Cl)s1)c1ccccc1 | > 100 µM | > 100 µM (inactive)
73 | CCN(CC(=O)Nc1cccc(C#N)c1)CC(=O)Nc1cccc(OC)c1 | > 100 µM | > 100 µM (inactive)
74 | COc1cc2c(cc1OC)CN(c1ccc([N+](=O)[O-])c(C(F)(F)F)c1)CC2 | > 100 µM | > 100 µM (inactive)
75 | S=C1SCN(Cc2cccnc2)CN1Cc1ccccc1 | > 100 µM | > 100 µM (inactive)
76 | CCOc1ccc(S(=O)(=O)Nc2ccc(S(=O)(=O)N3CCCC3)cc2)cc1 | 40.8 µM | > 100 µM (inactive)
77 | Cc1cccc(Nc2nc(-c3ccc(F)cc3)cs2)n1 | > 100 µM | > 100 µM (inactive)
